In US20130137116A1, “METHOD AND KIT FOR DETECTING THE EARLY ONSET OF RENAL TUBULAR CELL INJURY” (priority 2003, published 2013):

Assays:
male Swiss-Webster mice = settings: larger dose (20 μg/kg as printed), previously shown; cited from earlier work
rat = settings: after the initial insult; cited from earlier work
[1] = tested on: Human renal proximal tubular epithelial cells (RPTEC); experiment: Mild ATP depletion of cultured cells (in vitro ischemia) with antimycin A; assay type: cell-based; settings: 1 μm antimycin; for ATP level (partial ATP depletion): mean+/-SD from four experiments
Method: Human renal proximal tubular epithelial cells (RPTEC) were obtained from Clonetics (San Diego, Calif.). Cells were grown in Renal Epithelial Cell Basal Medium supplemented with REGM complex ([…] hydrocortisone, 10 pg/ml hEGF, 0.5 μg/ml epinephrine, 6.5 pg/ml triiodothyronine, 10 μg/ml transferrin, 5 μg/ml insulin, 1 μg/ml gentamicin sulfate, and 2% FBS), as recommended by the manufacturer.
We modified previously described protocols of in vitro ischemia by ATP depletion with inhibitors of oxidative phosphorylation (8, 9). On the second day post-confluence, RPTEC cells were incubated with 1 μm antimycin A (Sigma) for varying periods of time up to 6 h. […] ATP levels were monitored using a luciferase-based assay kit (Sigma), and expressed as a percentage of control values. Cells were harvested at various time points of ATP depletion, and analyzed for NGAL mRNA expression by RT-PCR and NGAL protein expression by Western analysis. The secretion of NGAL into the culture medium was also monitored.
In order to confirm the origin of NGAL from ischemic proximal tubule cells, we modified previously described protocols of in vitro ischemia by ATP depletion in cultured human proximal tubule cells (RPTEC). […] NGAL mRNA was just detectable in resting cells.

Molecule	Time to tubule cell necrosis and apoptosis, and impaired renal function (male Swiss-Webster mice) [days]	Time at which KIM-1 is qualitatively detectable (rat) [h]	ATP level (partial ATP depletion) ([1]; by 6 h)	Morphological consequences of mild ATP depletion ([1]; up to 6 h)	ATP level (partial ATP depletion) ([1]; within 1 h)	NGAL mRNA induction by RT-PCR ([1]; following partial ATP depletion)
N.N.[Cl][Pt][Cl] [cisplatin]	3 to 4	24 to 48	–	–	–	–
antimycin A	–	–	about 75±3 % of control	No morphological consequences	about 83±3 % of control	rapid and duration-dependent induction
